These results are taken from patent publication US10202408B2, “Prodrugs and methods of use thereof” (Health Innovation Ventures B.V., priority 2012, dated 2019).

Data set [1] has as its system H1299 cells engineered to over-express human aldo-ketoreductase 1C3 (AKR1C3). Put plainly: Low cell density IC50 (SRB) assay, H1299 wild type versus AKR1C3 over-expressing cells. It is filed as cell-based. The following applies: 4 h exposure. On the procedure: (§1) Compounds were subjected to testing, including low-cell density cytotoxicity assay. Cells (500 cells/well) were seeded in 96-well plates and exposed to prodrug for 4 h, washed, then left to grow for a further 5 days. The SRB assay was employed to determine IC50 values (concentration of prodrug required to inhibit proliferation by 50%). Parental HCT116 cells (HCT116 is a cell line derived from human colon cancer) and cells expressing the example nitroreductase gene nfsA from Escherichia coli were evaluated head-to-head. Parental H1299 cells (H1299 is a cell line derived from lung cancer) and cells expressing the example nitroreductase gene nfsA from Escherichia coli were evaluated head-to-head. Parental HCT116 cells and cells expressing human AKR1C3 were evaluated head-to-head. Parental H1299 cells and cells expressing human AKR1C3 were evaluated head-to-head. In a variation of these assays test compounds were assessed for their ability to give hypoxia-selective cell killing. Here wild type HCT116, H460 (H460 is a cell line derived from lung cancer), H1299 and SiHa cells (SiHa is a cell line derived from cervical cancer) were used in addition to HCT116 cells engineered to over express cytochrome P450 reductase (HCT116 POR), a human one-electron nitroreductase. Low-cell density cytotoxicity assays were performed as above under oxic conditions and compared to experiments where cells were shown 4 h of anoxia during the prodrug exposure period, before being washed free of prodrug and then left to grow for a further 5 days under oxic conditions, as above.

Data set [2] relates to 15% E coli NfsA-expressing H1299 xenografts. Description: Tumour growth delay, 15% E coli NfsA-expressing H1299 xenografts. The format is in vivo, NIH-III mice. The settings on record: for E coli NfsA mediated anti-tumour efficacy (mean tumour volume): 500 umol/kg twice daily (BID), total 1000 umol/kg; for tumour growth delay: mixed HCT116 and H1299 xenografts, 15% E coli NfsA cells, single (or BID) intraperitoneal dose. On the procedure:
Animals weighed 18-25 g at the time of tumour inoculation. Tumours were grown subcutaneously on the right flank of mice by inoculating cells grown in tissue culture (1×10^7 cells in 100 uL serum free α-MEM). Tumour sizes were monitored three times weekly using electronic callipers and treatments were initiated once tumour diameter reached ≥7 mm.
Tumour bearing mice were randomised into the appropriate treatment groups and tumour size and body weight recorded. Test compounds were formulated on the day of the experiment and kept in foil-wrapped tubes out of direct fluorescent light. If recruitment of animals occurred over multiple days, the drug stocks were aliquoted into tubes and frozen once at […] until required. Mice were treated with a single (or BID) dose of prodrug by intraperitoneal injection and thereafter tumour size and body weight was monitored every second day. Tumour volume was calculated as π (l×w×w)/6, where l is the major axis and w is the perpendicular minor axis. Animals were culled when they had reached the appropriate survival endpoint or when body weight loss exceeded 20% of the pre-treatment value.

Data set [3] concerns HCT116 cells engineered to over-express E coli NfsA. Put plainly: Low cell density IC50 (SRB) assay, HCT116 wild type versus E coli NfsA over-expressing cells. The format is cell-based, human. As to the method:
as §1

For data set [4], the system named is wild type SiHa tumour xenografts. Description: Excision assay with and without radiation, wild type SiHa tumour xenografts. It is filed as in vivo, NIH-III nude mice. As to the method:
Tumours were grown subcutaneously in the flank of NIH-III mice by inoculating cells grown in tissue culture. Tumours were monitored using electronic calipers. When tumours reached treatment size, mice were randomized to treatment groups (five to seven per group). Compounds were given as single (or BID) intraperitoneal doses alone or 5 min after whole body irradiation (^60Co source). Eighteen hours after treatment, tumours were excised, weighed, minced, dissociated enzymatically, and plated to determine clonogenicity. Clonogens/gram of tissue were calculated relative to controls and effects of treatment were tested for significance (ANOVA with Dunnett's).

The subject of data set [5] is HCT116 MCLs with 3% E coli NfsA-expressing cells. Put plainly: MCL clonogenic bystander assay, HCT116 MCLs seeded with 3% E coli NfsA-expressing cells. The format is cell-based, human. The following applies: 97% wild type HCT116, 3% E coli NfsA-expressing cells. As to the method: (§2) In parallel, a three dimensional high-cell density multi-cellular layer (MCL) clonogenic assay was performed. 1×10^6 cells of either 100% HCT-116^WT or containing 97% WT with a minor 3% HCT-116^NTR cell population were seeded into a collagen-coated Teflon microporous membrane and left to grow for 3 days. MCLs were then exposed to prodrug for 5 h. After treatment, MCLs were enzyme dissociated, diluted in fresh medium and plated to determine clonogenic survival. To discriminate clonogenic activator (NTR+) from target (NTR−) colonies, cells were plated in non-selective medium (total cells) and medium containing 1 μM puromycin (activator cells). Colonies were grown for 10 days before staining. Colonies containing >50 cells were counted. A variation of this assay was also used to assess for evidence of AKR1C3-dependent cytotoxicity. Here either 100% HCT-116W^T or 100% HCT-116^AKR1C3 cells were seeded to provide MCLs that were then exposed to prodrug.

Data set [6] has as its system HCT116 MCLs over-expressing AKR1C3. Put plainly: Multicellular layer (MCL) clonogenic assay, HCT116 wild type versus AKR1C3 over-expressing MCLs. It is filed as cell-based, human. On the procedure: as §2
The test system of data set [7] is bacterial nitroreductases from the NfsA and NfsB families. Put plainly: GFP SOS assay with nitroreductase over-expression library. The format is cell-based, E. coli strain SOS-R4. The following applies: single and poly mutated variants of NfsA_Ec, single-mutated variant of NfsA_Bs.
Data set [8] relates to H1299 cells engineered to over-express E coli NfsA. Put plainly: Low cell density IC50 (SRB) assay, H1299 wild type versus E coli NfsA over-expressing cells. It is filed as cell-based, human. As to the method:
as §1

Data set [9] relates to HCT116 cells engineered to over-express human aldo-ketoreductase 1C3 (AKR1C3). Put plainly: Low cell density IC50 (SRB) assay, HCT116 wild type versus AKR1C3 over-expressing cells. It is filed as cell-based. The settings on record: 4 h exposure. As to the method:
as §1

Data set [10] concerns bacterial nitroreductases from the NfsA and NfsB families. Put plainly: GFP SOS assay with nitroreductase over-expression library. It is filed as cell-based, E. coli strain SOS-R4. The following applies: 55 candidate nitroreductase library, 6 h challenge. The text has this: The method employed the over-expression of a candidate nitroreductase gene from plasmid pUCX in an SOS reporter strain, as first described in Prosser et al., 2010, Biochem Pharmacol 79, 678-687. In order to enhance the sensitivity of the SOS reporter system, an sfiA::GFP reporter construct was integrated into a CDF-based plasmid (which contains a compatible origin of replication with pUCX) to give the pANODuet reporter plasmid for GFP screening. In addition, nfsA, nfsB, azoR, and nemA genes were deleted to minimise background metabolism, and the tolC gene deleted to minimise efflux of test compounds; this strain was designated SOS-R3. Further improvements were obtained by deleting the mdaB, ycaK, and yieF genes to minimise background metabolism, and by introducing transcriptional terminators to the pANODUET reporter plasmid. This final reporter strain was designated SOS-R4.
Stored glycerols of the 55-membered nitroreductase library in SOS-R4 were thawed and used to inoculate overnight cultures (Lysogeny Broth (LB) amended with 100 μg ml^−1 Ampicillin, 50 μg ml^−1 Spectinomycin, 0.4% glucose) that were incubated at 30° C., 200 rpm for 16 h. The next morning the GFP-SOS assay was commenced by inoculation of 195 μl fresh assay media (LB+100 μg ml^−1 Ampicillin, 50 μg ml^−1 Spectinomycin, 0.2% glucose, 50 μM IPTG) with 15 μl of overnight culture in individual wells of a 96-well plate. Plates were incubated at 30° C., 200 rpm for 2.5 h (pre-challenge period), following which cultures were diluted 1:2 by splitting 50:50 into fresh assay media (+DMSO to 0.5% final concentration) and fresh challenge media (assay media+drug to desired concentration, DMSO to 0.5% final concentration) to final volumes of 80 μl apiece in duplicate on a 384-well plate. Plates were incubated at 30° C., 200 rpm for 6 h (challenge period). GFP expression was determined at excitation 488 nm/emission 509 nm. Turbidity was determined by OD600 and fluorescence data from any replicates not found to be within 15% of the median culture turbidity were discarded.

The structures appear in SMILES notation.

For the molecule `CCN1CCN(C(=O)c2cc(N(CCBr)CCBr)c(S(C)(=O)=O)cc2[N+](=O)[O-])CC1` [compound 23, (5-(bis(2-bromoethyl)amino)-4-(methylsulfonyl)-2-nitrophenyl)(4-ethylpiperazin-1-yl)methanone], the “AKR1C3-mediated cytotoxicity (IC50 wild type versus AKR1C3)” value in data set [1] and in data set [9] was “less susceptible to AKR1C3-mediated cytotoxicity than PR-104A” in each case. In addition, in [2], the “E coli NfsA mediated anti-tumour efficacy (mean tumour volume)” value was “display significant E coli NfsA mediated anti-tumour efficacy”. For the same molecule, the tumour growth delay result in data set [2] is listed as “profound tumour growth delay”. Further, the “E coli NfsA-mediated cytotoxicity (IC50 wild type versus NfsA)” value in [3] and in data set [8] was “produce E coli NfsA-mediated cytotoxicity” throughout. Moreover, the “cell killing in combination with radiation versus radiation alone” value in [4] (HCT116 POR and wild type SiHa xenografts, 10 or 15Gy, single (or BID) intraperitoneal dose) is “increased cell killing above what could be achieved with radiation alone”. Besides, in data set [4] (with or without 10Gy radiation, 22 at 422, 300 and 11 at 1330, 23 at 1000 umol/kg), the “hypoxic cell kill in vivo (log cell kill)” value is reported as “significant hypoxic cell kill in vivo”. Besides, the “bystander cell killing in MCLs” value in data set [5] is “display evidence of metabolism by the 3% E coli NfsA-expressing cells with bystander cell killing of the 97% non-expressing neighbour cells”. Moreover, in data set [6], the “AKR1C3-dependent clonogenic cell kill in MCLs” value is given as “do not cause AKR1C3-dependant cytotoxicity”. Also, in data set [7], the “activity with mutated nitroreductase variants” value is “demonstrated”. Further, the “metabolism by bacterial nitroreductases (SOS response)” value in [10] is “substrates for multiple wild type and mutant bacterial nitroreductases from the NfsA and NfsB families”.
Regarding `CCS(=O)(=O)c1cc([N+](=O)[O-])c(C(=O)N2CCN(C)CC2)cc1N(CCBr)CCBr` [compound 25, (5-(bis(2-bromoethyl)amino)-4-(ethylsulfonyl)-2-nitrophenyl)(4-methylpiperazin-1-yl)methanone], the “AKR1C3-mediated cytotoxicity (IC50 wild type versus AKR1C3)” value in data set [1] and in data set [9] was “less susceptible to AKR1C3-mediated cytotoxicity than PR-104A” each time. Further, the “E coli NfsA-mediated cytotoxicity (IC50 wild type versus NfsA)” value in data set [3] and in data set [8] was “produce E coli NfsA-mediated cytotoxicity” each time. For the same molecule, the “bystander cell killing in MCLs” value in data set [5] was “display evidence of metabolism by the 3% E coli NfsA-expressing cells with bystander cell killing of the 97% non-expressing neighbour cells”. In addition, in data set [6], the “AKR1C3-dependent clonogenic cell kill in MCLs” value is reported as “do not cause AKR1C3-dependant cytotoxicity”. Further, in data set [7], the “activity with mutated nitroreductase variants” value is listed as “demonstrated”. Moreover, the “metabolism by bacterial nitroreductases (SOS response)” value in data set [10] was “substrates for multiple wild type and mutant bacterial nitroreductases from the NfsA and NfsB families”.
`CCN1CCN(C(=O)c2cc(N(CCBr)CCBr)c(S(=O)(=O)CC)cc2[N+](=O)[O-])CC1` [compound 26, (5-(bis(2-bromoethyl)amino)-4-(ethylsulfonyl)-2-nitrophenyl)(4-ethylpiperazin-1-yl)methanone]: the “AKR1C3-mediated cytotoxicity (IC50 wild type versus AKR1C3)” value in [1] and in data set [9] was “less susceptible to AKR1C3-mediated cytotoxicity than PR-104A” in each case. In addition, in [2], the “E coli NfsA mediated anti-tumour efficacy (mean tumour volume)” value was “display significant E coli NfsA mediated anti-tumour efficacy”. In addition, the tumour growth delay result in data set [2] is “profound tumour growth delay”. The “E coli NfsA-mediated cytotoxicity (IC50 wild type versus NfsA)” value in data set [3] and in [8] was “produce E coli NfsA-mediated cytotoxicity” throughout. The “bystander cell killing in MCLs” value in [5] was “display evidence of metabolism by the 3% E coli NfsA-expressing cells with bystander cell killing of the 97% non-expressing neighbour cells”. Further, the “AKR1C3-dependent clonogenic cell kill in MCLs” value in data set [6] is “do not cause AKR1C3-dependant cytotoxicity”. Further, in [7], the “activity with mutated nitroreductase variants” value is listed as “demonstrated”. Moreover, the “metabolism by bacterial nitroreductases (SOS response)” value in [10] was “substrates for multiple wild type and mutant bacterial nitroreductases from the NfsA and NfsB families”.
Regarding `CCS(=O)(=O)c1cc([N+](=O)[O-])c(C(=O)N2CCN(C(C)C)CC2)cc1N(CCBr)CCBr` [compound 27, (5-(bis(2-bromoethyl)amino)-4-(ethylsulfonyl)-2-nitrophenyl)(4-isopropylpiperazin-1-yl)methanone], the “AKR1C3-mediated cytotoxicity (IC50 wild type versus AKR1C3)” value in [1] and in [9] was “less susceptible to AKR1C3-mediated cytotoxicity than PR-104A” throughout. Further, the “E coli NfsA-mediated cytotoxicity (IC50 wild type versus NfsA)” value in data set [3] and in [8] was “produce E coli NfsA-mediated cytotoxicity” each time. For the same molecule, the “bystander cell killing in MCLs” value in [5] is reported as “display evidence of metabolism by the 3% E coli NfsA-expressing cells with bystander cell killing of the 97% non-expressing neighbour cells”. In addition, the “AKR1C3-dependent clonogenic cell kill in MCLs” value in data set [6] is “do not cause AKR1C3-dependant cytotoxicity”. In [7], the “activity with mutated nitroreductase variants” value is recorded as “demonstrated”. Further, in data set [10], the “metabolism by bacterial nitroreductases (SOS response)” value was “substrates for multiple wild type and mutant bacterial nitroreductases from the NfsA and NfsB families”.
